The record followed here is PubChem BioAssay (NCI).

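The compound was tested at five concentrations on cells cultured in 96-well plates, with a 48-hour exposure period. Abbreviation: GI50, concentration required for 50% inhibition of growth. TGI marks complete inhibition of growth.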

Common to all, as to test: growth of human tumour cells (NCI), 48 h
The test system of assay [1] is SK-MEL-28 melanoma.
The subject of assay [2] is RXF 393 renal.
The test system of assay [3] is SF-539 CNS.
Assay [4] has as its system RPMI-8226 leukemia.
Assay [5] has as its system CCRF-CEM leukemia.
Assay [6] deals with T-47D breast.
For assay [7], the system named is M14 melanoma.
Assay [8] concerns LOX IMVI melanoma.
The test system of assay [9] is ACHN renal.
Assay [10] concerns SK-OV-3 ovarian.

Consider `CC(C)(O)CCc1cccc(C(=O)c2cnn(-c3ccc(F)cc3)c2N)c1`, for which the GI50 was > 25 µM in assay [1]; > 25 µM in [2]; > 25 µM in [3]; > 25 µM in [4]; > 25000 nM in assay [5]; 8.17 µM in assay [6]. The GI50 in assay [7] was > 25000 nM; in assay [8], > 25000 nM; in assay [9], > 25000 nM; in assay [10], > 25 µM. Besides, the TGI in assay [1], in assay [2], in assay [3], in assay [4], in [5] and in assay [6] was > 25 µM throughout. Also, the TGI in [7], in [8], in [9] and in [10] was > 25 µM each time.

With `C[C@@H](CS[As](C)C)C(=O)N1CCC[C@H]1C(=O)O`, the GI50 was 0.708 µM in [1]; 0.194 µM in [2]; 0.131 µM in assay [3]; 0.0262 µM in [4]; 142 nM in assay [5]; 0.606 µM in assay [6]. Also, the GI50 is 105 nM in assay [7], 172 nM in [8], 113 nM in [9] and 0.625 µM in assay [10]. Further, the TGI in assay [1] turned out to be 21.8 µM; in [2], 2.81 µM; in assay [3], 1.41 µM; in assay [4], 0.0831 µM; in assay [5], 0.643 µM; in [6], 5.75 µM. Besides, the TGI in [7] is 0.829 µM; in assay [8] it was 0.673 µM; in [9], 1.2 µM; in assay [10], 14.6 µM.

Turning to `C[C@@]1(C(=O)O)CCC[C@]2(C)C1CC[C@]13C[C@@](O)(CO)[C@](O)(CC[C@]12O)C3` (stereo not given in full), the GI50 in assay [1] is > 100 µM; in assay [2] it was > 100 µM; in assay [3], > 100 µM; in assay [4] it was > 100 µM; in [5], > 100000 nM; in assay [6], > 100 µM. For the same compound, the GI50 was > 100000 nM in assay [7], > 100000 nM in [8], > 100000 nM in [9] and > 100 µM in assay [10]. Besides, the TGI in assay [1], in [2], in assay [3], in assay [4], in assay [5] and in assay [6] was > 100 µM in each case. In addition, the TGI in assay [7], in [8], in assay [9] and in assay [10] was > 100 µM each time.

Consider `O=C(N/N=C/c1cc(Cl)ccc1O)c1ccccc1Nc1ccnc(C(F)(F)F)c1`, for which the GI50 is 0.389 µM in assay [1]; 0.517 µM in [2]; 0.721 µM in assay [3]; 0.174 µM in assay [4]; 127 nM in [5]; 0.633 µM in assay [6]. Besides, the GI50 was 407 nM in [7], 263 nM in assay [8], 300 nM in assay [9] and 0.55 µM in assay [10]. In addition, the TGI is 15.1 µM in assay [1]; 14.1 µM in [2]; 8.19 µM in assay [3]; 1.2 µM in assay [4]; 1.51 µM in assay [5]; 9.62 µM in assay [6]. For the same compound, the TGI in assay [7] is 2.26 µM; in assay [8], 12 µM; in assay [9] it was 11.2 µM; in [10] it was 19.1 µM.

On to `O=C1c2ccn(CCCNC(CO)(CO)CO)c2C(=O)c2c1c(O)c1ccccc1c2O`, for which the GI50 was 51.3 µM in assay [1]; 24.2 µM in assay [2]; 11.4 µM in [3]; 22.3 µM in assay [4]; 10000 nM in assay [5]; 16.4 µM in [6]. In addition, the GI50 in assay [7] was 14100 nM; in assay [8], 13100 nM; in [9], 13600 nM; in assay [10], 30.8 µM. Besides, the TGI in assay [1] is > 100 µM; in assay [2] it was > 61 µM; in [3] it was 25.6 µM; in [4] it was > 69.7 µM; in [5] it was 44 µM; in assay [6], 50.9 µM. For the same compound, the TGI amounted to 30.1 µM in [7], 29.7 µM in assay [8], 28.2 µM in [9] and 96.6 µM in [10].

Regarding `O=C(N=Nc1c(Cl)c(O)c2ccccc2c1O)C(=O)Nc1cccc(C(F)(F)F)c1`, the GI50 in [1] was 10.4 µM; in [2] it was 5.81 µM; in [3] it was 3.51 µM; in assay [4], 3.49 µM; in assay [5], 2840 nM; in [6] it was 4.92 µM. Moreover, the GI50 in [7] was 1960 nM; in assay [8], 1970 nM; in assay [9], 1920 nM; in [10], 12.9 µM. Also, the TGI in assay [1] is 23.3 µM; in [2], 18.8 µM; in assay [3], 14.4 µM; in [4] it was 15.6 µM; in assay [5] it was 8.77 µM; in assay [6] it was 41.3 µM. The TGI in [7] was determined as 4.1 µM; in assay [8], 5.09 µM; in assay [9] it was 7.12 µM; in assay [10], 26.7 µM.

With `O=C1C(Cl)=C(Cl)C(=O)N1c1ccc(F)cc1`, the TGI was determined as 37.1 µM in assay [1]; 38.5 µM in assay [2]; 51.9 µM in [3]; 59.7 µM in assay [4]; 16.5 µM in assay [5]; 51.2 µM in assay [6]. In addition, the TGI in assay [7] is 39.5 µM; in assay [8] it was 32.6 µM; in assay [9], 36.3 µM; in assay [10] it was > 69.2 µM.
